Data published in patent US10266548B2, “Substituted benzylindazoles for use as Bub1 kinase inhibitors in the treatment of hyperproliferative diseases” (Bayer Intellectual Property GmbH, priority 2011, dated 2019).
Read-outs that look alike come from different tables or passages of the source.

How the values were obtained:
[1] = biological target: catalytic domain of human Bub1 (amino acids 704-1085) (Homo sapiens (Human), UniProt O43683); test: Bub1 kinase assay (TR-FRET); assay type: biochemical; details: 10 μM ATP, 1 μM peptide substrate; read-out: Biological Assay 1: Bub1 kinase assay median IC50
How it was run: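 Phosphoserine product detected by TR-FRET (Eu-labeled anti-mouse IgG/anti-phosphoserine antibody to streptavidin-XL665) after 1 h at 22 °C. IC50 from 4-parameter logistic fit.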

HeLa cells = test: Proliferation assay (HeLa cell line); assay type: cell-based; details: read-out: Biological Assay 2: Proliferation assay (HeLa cell line) median IC50
[2] = Homo sapiens, 96 h, 4 days, crystal violet

Chain of catalytic domain of human Bub1 (amino acids 704-1085) (O43683 704-1085): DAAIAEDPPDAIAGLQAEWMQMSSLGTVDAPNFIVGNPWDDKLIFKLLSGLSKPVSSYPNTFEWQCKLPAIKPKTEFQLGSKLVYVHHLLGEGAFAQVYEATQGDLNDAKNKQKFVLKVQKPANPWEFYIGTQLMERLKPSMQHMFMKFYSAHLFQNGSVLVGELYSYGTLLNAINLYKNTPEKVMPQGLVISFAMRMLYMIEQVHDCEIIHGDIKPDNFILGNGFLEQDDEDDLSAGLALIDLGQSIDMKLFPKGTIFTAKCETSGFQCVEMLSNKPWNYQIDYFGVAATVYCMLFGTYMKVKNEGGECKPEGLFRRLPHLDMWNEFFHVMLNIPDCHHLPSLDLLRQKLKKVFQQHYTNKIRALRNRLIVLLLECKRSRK

Row | Compound | IC50 [1] [µM] | IC50 (HeLa cells; [2]) [µM] | IC50 (HeLa cells; Homo sapiens, 96 h) [µM] | IC50 (HeLa cells; 4 days, crystal violet) [µM]
1 | CCOc1cc(F)c(Cn2nc(-c3ncc(OCCNC(=O)OC(C)(C)C)c(Nc4ccncc4)n3)c3ccccc32)c(F)c1 [Example 4-23, tert-butyl [2-({2-[1-(4-ethoxy-2,6-difluorobenzyl)-1H-indazol-3-yl]-4-(pyridin-4-ylamino)pyrimidin-5-yl}oxy)ethyl]carbamate] | 0.0093 | 4.9 | – | –
2 | CCOc1cc(F)c(Cn2nc(-c3ncc(OCC(F)(F)F)c(Nc4ccncc4)n3)c3ccccc32)c(F)c1 [Example 11-2, 2-[1-(4-ethoxy-2,6-difluorobenzyl)-1H-indazol-3-yl]-N-(pyridin-4-yl)-5-(2,2,2-trifluoroethoxy) pyrimidin-4-amine] | 0.01 | ≥ 10 | – | –
3 | CCOc1cc(F)c(Cn2nc(-c3nccc(Nc4ccncc4)n3)c3ccccc32)c(F)c1 [Example 5-1, 2-[1-(4-ethoxy-2,6-difluorobenzyl)-1H-indazol-3-yl]-N-(pyridin-4-yl)pyrimidin-4-amine] | 0.0052 | – | 1.4 | –
4 | CCOc1cc(F)c(Cn2nc(-c3nccc(N(CC4(CO)COC4)c4ccncc4)n3)c3ccccc32)c(F)c1 [Example 17-2] | 2.4 | – | – | ≥ 10
5 | N#Cc1cnccc1Nc1nc(-c2nn(Cc3ccccc3F)c3ccccc23)ncc1O [Example 26-1, 4-({2-[1-(2-fluorobenzyl)-1H-indazol-3-yl]-5-hydroxypyrimidin-4-yl}amino)pyridine-3-carbonitrile] | 0.017 | 9.2 | – | –
6 | COc1cnc(-c2nn(Cc3c(F)cc(Br)cc3OCC(F)(F)F)c3ccccc23)nc1Nc1ccncc1 [Example 18-1, 2-{1-[4-bromo-2-fluoro-6-(2,2,2-trifluoroethoxy)benzyl]-1H-indazol-3-yl}-5-methoxy-N-(pyridin-4-yl)pyrimidin-4-amine] | 0.016 | 1.4 | – | –
7 | CCOc1cc(F)c(Cn2nc(-c3nccc(N(CCO)c4ccncc4)n3)c3ccccc32)c(F)c1 [Example 17-1, 2-[{2-[1-(4-ethoxy-2,6-difluorobenzyl)-1H-indazol-3-yl]pyrimidin-4-yl}(pyridin-4-yl)amino]ethanol] | 0.17 | ≥ 10 | – | –
8 | COc1ccc(Cn2nc(-c3ncc(O)c(Nc4ccncc4)n3)c3ccccc32)cc1 [Example 3-2, 2-[1-(4-methoxybenzyl)-1H-indazol-3-yl]-4-(pyridin-4-ylamino) pyrimidin-5-ol] | 0.0098 | – | ≥ 10 | –
9 | COc1ccc(Cn2nc(-c3ncc(OC)c(Nc4cc[nH]c(=O)c4)n3)c3ccccc32)cc1 [Example 24-7, 4-({5-methoxy-2-[1-(4-methoxybenzyl)-1H-indazol-3-yl]pyrimidin-4-yl}amino)pyridin-2(1H)-one] | 1.2 | – | 10 | –
10 | COc1cnc(-c2nn(Cc3c(Cl)ccc(OC)c3F)c3ccccc23)nc1Nc1ccncc1 [Example 2-2-1, 2-[1-(6-chloro-2-fluoro-3-methoxybenzyl)-1H-indazol-3-yl]-5-methoxy-N-(pyridin-4-yl)pyrimidin-4-amine] | 0.0026 | 3.4 | – | –
11 | CCOc1cc(F)c(Cn2nc(-c3ncc(OC)c(Nc4ccncc4C(N)=O)n3)c3ccccc32)c(F)c1 [Example 25-3, 4-({2-[1-(4-ethoxy-2,6-difluorobenzyl)-1H-indazol-3-yl]-5-methoxypyrimidin-4-yl}amino)pyridine-3-carboxamide] | 0.0088 | 4.4 | – | –
12 | COc1cnc(-c2nn(Cc3ccccc3Br)c3ccccc23)nc1Nc1ccncc1 [Example 2-21-1, 2-[1-(2-bromobenzyl)-1H-indazol-3-yl]-5-methoxy-N-(pyridin-4-yl)pyrimidin-4-amine] | 0.012 | – | ≥ 10 | –
13 | COc1cnc(-c2nn(Cc3ccc4c(c3)NC(=O)CC4)c3ccccc23)nc1Nc1ccncc1 [Example 2-27-1, 7-({3-[5-methoxy-4-(pyridin-4-ylamino)pyrimidin-2-yl]-1H-indazol-1-yl}methyl)-3,4-dihydroquinolin-2(1H)-one] | 0.02 | ≥ 10 | – | –
